Data on 14 compounds can be found in ChEMBL document CHEMBL4739717, “Methods of treating cartilage disorders through inhibition of clk and dyrk” (2020).

Some results are limits rather than exact numbers.

The term EC50 denotes the concentration giving half of the maximal effect. The term Emax denotes the greatest response seen or fitted, relative to the assay's reference.

Assay [1] has as its target Dual specificity tyrosine-phosphorylation-regulated kinase 1A (Homo sapiens, UniProt Q13627). Kind of assay: Inhibition of recombinant DYRK1A (unknown origin) using Ser/Thr 18 peptide as substrate incubated for 1 hr in presence of ATP by FRET assay.
Assay [2] has as its target Dual specificity protein kinase CLK3 (Homo sapiens, UniProt P49761). Kind of assay: Inhibition of recombinant CLK3 (unknown origin) using Ser/Thr 18 peptide as substrate incubated for 1 hr in presence of ATP by FRET assay.
A short description of assay [3]: Induction of chondrogenesis in human MSC assessed as incubated for 6 days by rhodamine B and Nile red staining based imaging analysis. Format: functional. The following applies: bmmsc.
Assay [4] is described as follows: Effect on Wnt signaling pathway in human SW480 cells harbouring TCF/LEF luciferase reporter gene and SP5-Luc reporter gene incubated for 36 to 48 hrs by luminescence assay. Format: cell-based.
Assay [5] can be described thus: Induction of chondrogenesis in human MSC assessed as maximum activity at 30 nM incubated for 6 days by rhodamine B and Nile red staining based imaging analysis relative to control. Format: functional. The note with it: BMMSC, 144 h, time 6 day.
Assay [6] is described as follows: Induction of chondrogenesis in human MSC assessed as maximum activity at 10 nM incubated for 6 days by rhodamine B and Nile red staining based imaging analysis relative to control. Format: functional. The following applies: BMMSC, 144 h, time 6 day.
Assay [7] in a line: Inhibition of IL1-beta induced MMP3 expression levels in human chondrocytes assessed as MMP3 levels incubated for 2hrs followed by IL1-beta stimulation and measured after overnight incubation by LANCE assay. Format: functional, cell-based. The following applies: Chondrocyte. For orientation: TR-FRET usually uses a lanthanide donor and a delayed reading to cut background.
A short description of assay [8]: Induction of chondrogenesis in human MSC assessed as maximum activity at 100 nM incubated for 6 days by rhodamine B and Nile red staining based imaging analysis relative to control. Format: functional. The following applies: BMMSC, 144 h, time 6 day.
Assay [9] in a line: Induction of chondrogenesis in human MSC assessed as maximum activity at 300 nM incubated for 6 days by rhodamine B and Nile red staining based imaging analysis relative to control. The note with it: BMMSC, 144 h, time 6 day. Format: functional.

Dual specificity protein kinase CLK3, sequence (P49761 whole entry): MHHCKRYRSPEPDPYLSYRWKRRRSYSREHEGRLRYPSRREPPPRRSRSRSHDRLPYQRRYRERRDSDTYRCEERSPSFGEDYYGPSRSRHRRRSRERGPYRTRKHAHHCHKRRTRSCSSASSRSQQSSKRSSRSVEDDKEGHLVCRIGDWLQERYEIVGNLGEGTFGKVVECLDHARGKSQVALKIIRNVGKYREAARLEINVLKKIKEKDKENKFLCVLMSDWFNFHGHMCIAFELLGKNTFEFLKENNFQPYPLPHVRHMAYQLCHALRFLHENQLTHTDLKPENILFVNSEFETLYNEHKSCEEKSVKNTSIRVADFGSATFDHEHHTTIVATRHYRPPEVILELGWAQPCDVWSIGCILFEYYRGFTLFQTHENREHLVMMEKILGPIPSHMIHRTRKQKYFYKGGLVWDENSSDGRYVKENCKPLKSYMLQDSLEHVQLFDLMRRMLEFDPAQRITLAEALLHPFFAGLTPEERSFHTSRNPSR

Consider `CN(C)c1cncc(-c2cnc3[nH]nc(-c4cc5c(-c6ccncc6)cncc5[nH]4)c3c2)c1`, for which the EC50 in assay [1] is 14 nM; in assay [2], above 10000 nM; in assay [3], 10 nM; in assay [4], above 10000 nM. Further, the maximum response (Emax) at 0.03 µM in [5] worked out at 191%.

On to `CC(C)Nc1cncc(-c2cnc3[nH]nc(-c4cc5c(-c6ccccc6F)ccnc5[nH]4)c3c2)c1`, for which the Emax at 0.01 µM in [6] was 81.6%. The EC50 in assay [1] was 35 nM; in assay [2], above 10000 nM; in assay [3], 10 nM; in [4], above 10000 nM.

For `CN1CCN(c2ccnc3[nH]c(-c4n[nH]c5ccc(-c6cncc(NC(=O)c7ccccc7)c6)nc45)cc23)CC1`, the Emax at 0.01 µM in assay [6] stood at 61.8%. Moreover, the EC50 in assay [1] was 29 nM; in [2], 258 nM; in [3], 10 nM; in assay [4] it was 6100 nM.

As to `O=C(Nc1ccc(OCCN2CCCC2)nc1)c1n[nH]cc1C#Cc1cccnc1`, the values for the concentration for a half-maximal effect (EC50) in [1], in assay [2] and in assay [4] were 24 nM, above 10000 nM and 409 nM, respectively. The Emax at 0.03 µM in [5] was determined as 68.8%.

As to `O=C(Nc1c[nH]nc1C(=O)Nc1cncc(-c2cccc(F)c2)c1)c1cncc(F)c1`, the EC50 in assay [7] is 0.4 nM; in assay [1], 63 nM; in [2], above 10000 nM; in assay [4], 479 nM. In addition, the Emax at 0.1 µM in assay [8] stood at 81.5%.

As to `CCCC(=O)Nc1cncc(-c2ccc3[nH]nc(-c4cc5c(-c6ccncc6)cncc5[nH]4)c3c2)c1`, the EC50 in assay [1] is 6 nM; in assay [2], 460 nM; in assay [3], 100 nM; in [4], above 10000 nM. In addition, in [8], the Emax at 0.1 µM amounted to 124%.

`c1cc(-c2ccnc3[nH]c(-c4n[nH]c5ccc(-c6cncc(OCCN7CCCC7)c6)nc45)cc23)ccn1`: in assay [9], the Emax at 0.3 µM came to 39.6%. Further, the concentration giving a half-maximal response (EC50) is 28 nM in [1], above 10000 nM in assay [2] and above 10000 nM in assay [4].

In the case of `c1cc(-c2cncc3[nH]c(-c4n[nH]c5ccc(-c6cncc(CNCC7CCCC7)c6)cc45)nc23)cs1`, the EC50 in assay [1] was 12 nM; in [2], above 10000 nM; in [3], 100 nM; in assay [4], 58 nM. For the same compound, the Emax at 0.1 µM in [8] was found to be 167%.

Turning to `c1cc(-c2ccnc3[nH]c(-c4n[nH]c5ccc(-c6cncnc6)cc45)cc23)ccn1`, the EC50 in assay [1] was 68 nM; in assay [2] it was above 10000 nM; in assay [4] it was above 10000 nM. Also, in assay [8], the Emax at 0.1 µM is 17.3%.

Turning to `c1cc(-c2ccnc3[nH]c(-c4n[nH]c5ccc(-c6cncc(CNCC7CCCC7)c6)nc45)cc23)ccn1`, the EC50 in assay [1] is 40 nM; in [2], above 10000 nM; in assay [3], 100 nM; in assay [4] it was above 10000 nM. Besides, the Emax at 0.1 µM in assay [8] worked out at 67.2%.

For `FC1(F)CCN(Cc2cncc(-c3ccc4[nH]nc(-c5cc6cccnc6[nH]5)c4n3)c2)C1`, the half-maximal effective concentration (EC50) in assay [1] stood at 11 nM; in assay [2] it was 370 nM; in assay [3] it was 100 nM; in assay [4] it was 104 nM. In addition, the maximal response (Emax) at 0.03 µM in assay [5] amounted to 134%.

For `Nc1cncc(-c2cc3c(-c4cc5c(-c6ccncc6)cncc5[nH]4)n[nH]c3cn2)c1`, the concentration giving a half-maximal response (EC50) in assay [1] is 3 nM; in [2], above 10000 nM; in assay [3], 10 nM; in assay [4], above 10000 nM. In addition, the Emax at 0.03 µM in assay [5] stood at 52%.

Consider `O=C(Cc1ccccc1)Nc1cncc(-c2ccc3[nH]nc(-c4cc5cnccc5[nH]4)c3c2)c1`, for which the Emax at 0.01 µM in assay [6] stood at 119%. Besides, the EC50 worked out at 8 nM in assay [1], 180 nM in assay [2], 10 nM in assay [3] and 1760 nM in assay [4].

For the compound `Nc1cncc(-c2cc3c(-c4cc5c(-c6ccccc6F)ccnc5[nH]4)n[nH]c3cn2)c1`, in [6], the Emax at 0.01 µM was 32.4%. Also, the results for the EC50 in assay [1], in assay [2] and in [4] were 42 nM, above 10000 nM and above 10000 nM, respectively.
